Ten compounds from patent US11236083B2, “Compounds and pharmaceutical compositions for modulating SGK activity, and methods thereof” (NEW ERA PHARMA, INC., priority 2016, dated 2022) can be followed below.

One data set has as its system HeLa. Kind of data set: HeLa cell testing (Table 2). The data set is classed as cell-based. To be noted: Homo sapiens; HeLa cells.
The target in another data set is T1, Sgk1 (Homo sapiens, UniProt O00141).
T1 sequence (O00141 1-431): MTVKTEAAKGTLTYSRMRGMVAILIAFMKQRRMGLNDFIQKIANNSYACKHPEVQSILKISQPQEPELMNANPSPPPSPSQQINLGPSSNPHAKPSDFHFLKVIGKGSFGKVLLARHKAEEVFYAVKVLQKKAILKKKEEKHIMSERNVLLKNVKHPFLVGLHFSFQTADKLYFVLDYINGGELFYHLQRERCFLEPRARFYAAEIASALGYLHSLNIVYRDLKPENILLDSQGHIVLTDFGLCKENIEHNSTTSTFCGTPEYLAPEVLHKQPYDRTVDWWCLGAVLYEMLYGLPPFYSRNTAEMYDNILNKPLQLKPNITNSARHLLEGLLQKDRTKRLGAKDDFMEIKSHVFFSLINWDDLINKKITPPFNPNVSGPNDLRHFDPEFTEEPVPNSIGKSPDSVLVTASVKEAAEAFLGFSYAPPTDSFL
Kind of data set: Enzyme based assay for SGK1 (biotinylated Akt Substrates-2 peptide, Eu3+ Cryptate/XL665 detection). The data set is classed as biochemical. As for the experimental part: (§1) 1. Enzyme Based Assays for SGK1, SGK2, SGK3, and Akt1
(§2) The kinase enzymatic reaction is carried out with a biotinylated Akt Substrates-2 peptide substrate. The phosphorylated substrate is then detected using a specific anti-phospho peptide antibody which is coupled with Eu^3+ Cryptate and XL665 conjugated with streptavidin.
(§3) Exemplary Assay Conditions
(§4) • Enzyme: ˜0.1 nM • Substrate: 0.2 μM • ATP: 50 μM and 1 mM • Mg^2+: 10 mM • Reaction time: 60 min with 50 μM ATP and 30 min with 1 mM ATP • SA-XL to Biotin: 1:10
(§5) Detailed Steps • 1. prepare the enzyme and substrate solution with the buffer from Cisbio • 2. add the enzyme and substrate solution to the diluted compound plate • 3. transfer 5 μL of compound, enzyme, and substrate mixture to an 384-well assay plate • 4. add 5 μL ATP (with Mg^2+) solution to initiate the reaction • 5. after certain time, add 10 μL of stop solution containing SA-XL and specific antibody • 6. read the plate after 2 h incubation at rt • 7. process the data using prizm software (Exemplary results are shown in FIG. 1.) 2. PK Studies Protocol

In the next data set the test system is 293T. Nature of the data set: 293T cell testing (Table 2). In kind it is cell-based. As to conditions: Homo sapiens, HEK-293T; 293T cells.
Another data set concerns 293T_O. Kind of data set: 293T_O cell testing (Table 2). The data set is classed as cell-based. As to conditions: 293T_O cells.
Another data set addresses T2, Sgk2 (Homo sapiens, UniProt Q9HBY8).
T2 sequence (Q9HBY8 1-367): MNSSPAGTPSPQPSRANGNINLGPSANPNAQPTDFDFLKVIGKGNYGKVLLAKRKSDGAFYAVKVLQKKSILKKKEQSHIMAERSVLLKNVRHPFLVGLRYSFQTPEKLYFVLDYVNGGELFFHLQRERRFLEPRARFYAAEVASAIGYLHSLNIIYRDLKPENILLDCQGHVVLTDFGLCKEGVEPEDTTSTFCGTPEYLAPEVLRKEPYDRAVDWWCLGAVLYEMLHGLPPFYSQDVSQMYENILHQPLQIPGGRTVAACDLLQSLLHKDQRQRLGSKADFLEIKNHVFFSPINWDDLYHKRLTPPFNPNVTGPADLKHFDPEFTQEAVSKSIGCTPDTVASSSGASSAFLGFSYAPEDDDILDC
Nature of the data set: Enzyme based assay for SGK2 (biotinylated Akt Substrates-2 peptide, Eu3+ Cryptate/XL665 detection). In kind it is biochemical. The protocol:
as §1, §2, §3, §4, §5

For the next data set, the target named is T3, hERG channels (Homo sapiens, UniProt Q12809).
T3 construct: expressed in transfected cells
T3 sequence (Q12809 whole entry): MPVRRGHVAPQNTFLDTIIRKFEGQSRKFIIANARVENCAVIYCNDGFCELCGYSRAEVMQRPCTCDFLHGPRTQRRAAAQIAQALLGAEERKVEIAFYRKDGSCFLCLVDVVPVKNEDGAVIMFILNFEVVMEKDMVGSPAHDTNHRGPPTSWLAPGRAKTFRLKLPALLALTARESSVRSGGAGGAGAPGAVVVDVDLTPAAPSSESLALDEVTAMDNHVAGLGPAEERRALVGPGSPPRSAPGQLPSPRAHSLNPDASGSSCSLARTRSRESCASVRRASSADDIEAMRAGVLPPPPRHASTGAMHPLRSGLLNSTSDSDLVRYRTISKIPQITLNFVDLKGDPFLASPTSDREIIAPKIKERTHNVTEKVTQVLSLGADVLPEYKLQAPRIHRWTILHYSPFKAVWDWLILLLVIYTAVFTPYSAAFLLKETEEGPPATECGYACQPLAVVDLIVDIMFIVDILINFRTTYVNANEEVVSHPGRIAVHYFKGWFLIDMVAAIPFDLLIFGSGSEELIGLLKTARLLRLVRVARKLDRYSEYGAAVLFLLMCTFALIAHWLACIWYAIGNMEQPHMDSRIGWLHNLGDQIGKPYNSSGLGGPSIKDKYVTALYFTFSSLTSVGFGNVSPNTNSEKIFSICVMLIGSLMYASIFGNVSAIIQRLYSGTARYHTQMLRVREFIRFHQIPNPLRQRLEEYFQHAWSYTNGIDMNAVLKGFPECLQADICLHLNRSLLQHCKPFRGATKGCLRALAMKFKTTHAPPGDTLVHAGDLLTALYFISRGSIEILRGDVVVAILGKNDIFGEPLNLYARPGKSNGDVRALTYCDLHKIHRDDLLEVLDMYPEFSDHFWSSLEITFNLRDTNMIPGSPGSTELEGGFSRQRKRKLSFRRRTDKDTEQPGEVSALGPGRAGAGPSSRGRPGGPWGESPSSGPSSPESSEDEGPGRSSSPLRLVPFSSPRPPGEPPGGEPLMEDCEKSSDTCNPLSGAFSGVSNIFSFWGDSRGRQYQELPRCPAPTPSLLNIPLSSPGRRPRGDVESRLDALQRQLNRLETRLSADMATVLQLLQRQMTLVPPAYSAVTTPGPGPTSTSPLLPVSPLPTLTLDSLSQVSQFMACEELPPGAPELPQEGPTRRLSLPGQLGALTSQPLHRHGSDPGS
Nature of the data set: Qpatch hERG assay (automated patch clamp, whole-cell tail current). In kind it is cell-based. To be noted: for IC50: CHO cell line stably expressing hERG channels, highest test concentration 30 μM. The protocol:
• Assay platform & method: Automated patch clamp (Qpatch-48) • Cell source: CHO cell line stably expressing hERG channels • Measured parameter: Whole-cell tail current of hERG channels • Test concentration: 6 concentrations (30, 10, 3, 1, 0.3, 0.1 μM)
Example: Qpatch hERG Assay
For orientation: Patch clamp records ionic current or voltage across a cell membrane.

The mark [1] stands for this setting: 50 μM ATP, read-out: Sgk1 (50 μM ATP).
The mark [2] stands for this setting: 1 mM ATP, read-out: Sgk1 (1 mM ATP).
Where [3] appears, read: 50 μM ATP, read-out: Sgk2 (50 μM ATP).
Where [4] appears, read: 1 mM ATP, read-out: Sgk2 (1 mM ATP).

SMILES strings stand for the structures. Values joined by “and” are separate entries in the source; they are usually repeats but may differ in a detail not shown here. Equal values may be shown once. Read-outs that look alike come from different tables or passages of the source.

With `COc1ccc(Cl)c(S(=O)(=O)Nc2ccc(-c3cc4[nH]ncc4c(OCC4CNCCO4)n3)cc2)c1` (stereo not drawn), the IC50 with HeLa was found to be 11.7 µM; at Sgk1 (setting [1]), 2.5 nM; at Sgk1 (setting [2]), 6.9 nM; in the data set with 293T, 20.4 µM; with 293T_O, 35.1 µM; at Sgk2 (setting [3]) it was 2 nM. On Sgk2 (setting [4]), the IC50 came out at 15.8 nM.

On to `COc1ccc(F)c(S(=O)(=O)Nc2ccc(-c3cc4[nH]ncc4c(SCC4CNCCO4)n3)cc2)c1` (stereo not drawn), for which the IC50 in the data set on HeLa is 15.6 µM; at Sgk1 (setting [1]), 2.3 nM; on Sgk1 (setting [2]), 6.6 nM; in the data set with 293T, 17.9 µM; in the data set on 293T_O, 24.5 µM; at Sgk2 (setting [3]), 3.4 nM. The IC50 on Sgk2 (setting [4]) was 4.1 nM.

For the compound `Nc1n[nH]c2cc(-c3ccc(NS(=O)(=O)c4cc(Cl)ccc4F)cc3)ccc12`, the IC50 was 6.6 µM in the data set with HeLa; 3.2 nM at Sgk1 (setting [1]); 113 nM on Sgk1 (setting [2]); 27.6 µM in the data set on 293T; 66.8 µM in the data set on 293T_O; 6.7 nM on Sgk2 (setting [3]). Besides, the IC50 on Sgk2 (setting [4]) stood at 68 nM.

As to `COc1ccc(F)c(S(=O)(=O)Nc2ccc(-c3cnc4cn[nH]c4c3)cc2)c1`, the IC50 with HeLa is 13.8 µM; at Sgk1 (setting [2]) it was > 200 nM; in the data set with 293T it was 66.5 µM; with 293T_O it was > 100 µM; on Sgk2 (setting [3]), 8.6 nM and 3.4 nM; on Sgk2 (setting [4]) it was > 200 nM.

Regarding `COc1ccc(F)c(S(=O)(=O)Nc2ccc(-c3cc4[nH]nc(N)c4cn3)cc2)c1`, the IC50 in the data set with HeLa is 68.4 µM; on Sgk1 (setting [2]), > 200 nM; in the data set with 293T, 94.4 µM; in the data set with 293T_O, > 100 µM; on Sgk2 (setting [3]), 5.5 nM; on Sgk2 (setting [4]) it was 54.1 nM.

With `COc1ccc(F)c(S(=O)(=O)Nc2ccc(-c3cc(OC)c4c(N)n[nH]c4c3)cc2)c1` [C, N-(4-(3-amino-4-methoxy-1H-indazol-6-yl)-phenyl)-2-fluoro-5-methoxybenzenesulfonamide], on hERG channels, the IC50 was > 30 µM.

On hERG channels, `COc1ccc(F)c(S(=O)(=O)Nc2ccc(-c3cc4[nH]nc(N)c4c(C)n3)cc2)c1` [D, N-(4-(3-amino-4-methyl-1H-pyrazolo[4,3-c]pyr-idin-6-yl)phenyl)-2-fluoro-5-methoxybenzenesulfonamide] showed an IC50 of 12.2 µM. Moreover, the “Fitting curve Hillslope” value at hERG channels (Qpatch hERG concentration-response fit) is “Fitting curve Hillslope = 0.88”.

For the compound `COc1ccc(F)c(S(=O)(=O)Nc2ccc(-c3cc(C)c4c(N)n[nH]c4n3)cc2)c1` [E, N-(4-(3-amino-4-methyl-1H-pyrazolo[3,4-b]-pyridin-6-yl)phenyl)-2-fluoro-5-methoxybenzenesulfonamide], at hERG channels, the IC50 was > 30 µM.

For the compound `COc1ccc(F)c(S(=O)(=O)Nc2ccc(-c3ccc4c(N)n[nH]c4n3)cc2)c1` [J, N-(4-(3-amino-1H-pyrazolo[3,4-b]pyridin-6-yl)-phenyl)-2-fluoro-5-methoxybenzenesulfonamide], the IC50 at hERG channels was > 30 µM.

Turning to `COc1ccc(F)c(S(=O)(=O)Nc2ccc(-c3cc4[nH]ncc4c(OCC4CNCCO4)n3)cc2)c1` (stereo not drawn) [drawing 99], the IC50 in the data set with HeLa is 35.8 µM; on Sgk1 (setting [1]), 3.1 nM; at Sgk1 (setting [2]), 9.7 nM; in the data set with 293T it was 47.9 µM; with 293T_O, 61.2 µM; on Sgk2 (setting [3]) it was 0.8 nM. In addition, the IC50 on Sgk2 (setting [4]) came out at 5.6 nM.
